Results: US20260035339A1, “TETRAHYDRONAPHTHALENE DERIVATIVE” (ATRANSEN PHARMA LTD., priority 2022, published 2026)

Experiments:
[1] = test system: Mouse colorectal cancer-derived CT26 cells; assay: Cell proliferation inhibitory effect using mouse colorectal cancer cells (CCK-8 assay); type: cell-based; conditions: 72 hours compound treatment, read-out: Evaluation of IC50 (proliferation inhibition rate of 50%)
Procedure, shortened: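 Cells seeded at 1000 per well in RPMI 1640 with 10% FBS; after 24 h medium replaced with compound at 0.01-30 μM. Viable cells counted by CCK-8 after 72 h of treatment, and IC50 taken as the concentration giving 50% proliferation inhibition relative to untreated control.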

human LAT2 = molecular target: T1, human LAT2 (Homo sapiens, UniProt Q9UHI5); assay: [14C]L-alanine uptake inhibition test using human-LAT2 stably expressing HEK293 cell line; type: cell-based
T1 construct: having full-length cDNA of human LAT1 or LAT2 inserted under a promoter of CMV; expressed in transfected cells
T1 sequence (Q9UHI5 1-535): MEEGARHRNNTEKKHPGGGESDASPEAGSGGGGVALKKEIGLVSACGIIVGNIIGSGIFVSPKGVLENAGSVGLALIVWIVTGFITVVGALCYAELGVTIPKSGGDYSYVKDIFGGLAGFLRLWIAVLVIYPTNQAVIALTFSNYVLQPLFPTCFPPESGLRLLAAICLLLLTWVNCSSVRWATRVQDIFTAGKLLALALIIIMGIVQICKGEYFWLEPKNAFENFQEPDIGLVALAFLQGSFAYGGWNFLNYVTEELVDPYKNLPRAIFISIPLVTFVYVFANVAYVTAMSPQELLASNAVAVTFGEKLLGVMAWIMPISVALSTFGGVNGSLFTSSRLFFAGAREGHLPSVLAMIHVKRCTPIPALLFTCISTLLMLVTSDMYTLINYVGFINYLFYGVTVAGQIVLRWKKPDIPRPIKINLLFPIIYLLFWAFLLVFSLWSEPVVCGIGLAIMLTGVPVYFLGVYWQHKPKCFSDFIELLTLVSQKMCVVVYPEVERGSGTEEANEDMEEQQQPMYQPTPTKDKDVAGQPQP
T1 sequence (P08195 1-529 partner): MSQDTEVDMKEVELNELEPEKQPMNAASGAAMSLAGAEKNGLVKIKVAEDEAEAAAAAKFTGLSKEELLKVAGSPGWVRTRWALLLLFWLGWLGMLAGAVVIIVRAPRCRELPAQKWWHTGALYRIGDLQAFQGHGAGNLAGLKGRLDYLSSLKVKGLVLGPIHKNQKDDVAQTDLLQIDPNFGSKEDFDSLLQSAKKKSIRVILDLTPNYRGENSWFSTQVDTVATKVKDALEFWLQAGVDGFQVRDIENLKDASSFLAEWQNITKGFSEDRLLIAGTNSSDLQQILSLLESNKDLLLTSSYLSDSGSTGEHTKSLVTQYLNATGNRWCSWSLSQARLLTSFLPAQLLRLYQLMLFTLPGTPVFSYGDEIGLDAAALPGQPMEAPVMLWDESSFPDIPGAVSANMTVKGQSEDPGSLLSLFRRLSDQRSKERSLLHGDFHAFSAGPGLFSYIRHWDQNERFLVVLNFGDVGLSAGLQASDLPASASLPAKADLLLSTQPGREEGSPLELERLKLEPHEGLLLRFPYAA
Excerpt: HEK293 cells stably expressing human LAT1 and LAT2 were produced, respectively.
A shuttle vector DNA (LAT1: pcDNA3.1(+) -hLAT1, LAT2: pcDNA3.1(+) -hLAT2; expression vector pcDNA3.1 (+) was produced by Invitrogen Corp.) having ampicillin and neomycin resistance markers and having full-length cDNA of human LAT1 or LAT2 inserted under a promoter of CMV (cytomegalovirus) was constructed. This vector was transfected into the HEK293 cells by a method using Lipofectamine (registered trademark) 2000 (Invitrogen Corp.) according to the manufacturer's instructions. […]
[^14C]L-alanine uptake inhibition using the compound of Example 1-1 was performed using the human-LAT2 stably expressing HEK293 cell line. In the same manner as in the [^14C]L-leucine uptake inhibition experiment in the human-LAT1 stably expressing HEK293 cell line, the human-LAT2 stably expressing HEK293 cell line was seeded in a 24-well plate at 1×10^5 Cell/Well, and after 48 hours, 1 μM of [^14C]L-alanine was taken up in Na^+-free HBSS in the presence of the compound (0.1, 1.0, 10, 0 μM in each case), which is a racemic form, of Example 1-1 for 1 minute, then the uptake amount of [^14C]L-alanine and the protein amount of the cell lysate were measured, and the uptake amount of [^14C]L-alanine per 1 mg of protein in the cell per minute was determined.

IC50 [1]: ≤ 0.9 µM
inhibitory action on LAT2 alanine uptake compared with LAT1 leucine uptake inhibition (human LAT2; LAT2 versus LAT1 stably expressing HEK293 cell line): weaker inhibitory action
IC50 (human LAT2; racemic form, 1 μM [14C]L-alanine, 1 minute, Na+-free HBSS, read-out: 50% suppression concentration, [14C]L-alanine uptake): ~1 µM
Structure (SMILES): NC1(C(=O)O)CCc2ccc(Oc3ccc4ccccc4c3)cc2C1 (stereo not drawn) [Example 1-1, 2-carboxy-7-(naphthalene-2-yloxy)-1,2,3,4-tetrahydronaphthalene-2-aminium chloride]
